# According to BindingDB's records for patent WO2022070068 (JANSSEN BIOTECH, INC., 2022):
# Where “and” joins values, the source holds several entries; their conditions need not be identical. Identical values can stand only once.
# Molecular target: Dihydroorotate dehydrogenase (quinone), mitochondrial (Homo sapiens, UniProt Q02127)
# Test: DHODH enzymatic assay
# Description: To detect DHODH enzyme activities, dichloroindophenol (DCIP) is added as the final electron acceptor in the assay. DCIP can accept electrons from the reduced coenzyme Q generated in the assay, or from dihydroorotate (DHO) via FMN by binding presumably to the ubiquinone pocket. DCIP solutions are blue, with an intense absorbance around 600 nm, but becomes colorless upon reduction (J. Biol. Chem. (1986) 261, 11386). The assay buffer contained […], pH 7.5, 150 mM NaCl, 0.5 mM EDTA, and 0.1% Triton X-100 in MilliQ water. Substrate consisting of 20 mM DHO, 5mM CoQ6, and 1mM DCIP in assay buffer, initiates the reaction. The assay is run in end-point mode by quenching the reaction with the potent DHODH inhibitor brequinar. Absorbance measurements were obtained using the BMG Phera Star plate-reading spectrophotomer. Purified human DHODH was purchased from Proteros (cat. No. PR-0044). Chemicals were purchased from Sigma-Aldrich, Teknova, and Avanti Polar Lipids. Liquid handling was performed using Labcyte Echo and Formulatrix Tempest.
# Sequence of Dihydroorotate dehydrogenase (quinone), mitochondrial (Q02127 whole entry): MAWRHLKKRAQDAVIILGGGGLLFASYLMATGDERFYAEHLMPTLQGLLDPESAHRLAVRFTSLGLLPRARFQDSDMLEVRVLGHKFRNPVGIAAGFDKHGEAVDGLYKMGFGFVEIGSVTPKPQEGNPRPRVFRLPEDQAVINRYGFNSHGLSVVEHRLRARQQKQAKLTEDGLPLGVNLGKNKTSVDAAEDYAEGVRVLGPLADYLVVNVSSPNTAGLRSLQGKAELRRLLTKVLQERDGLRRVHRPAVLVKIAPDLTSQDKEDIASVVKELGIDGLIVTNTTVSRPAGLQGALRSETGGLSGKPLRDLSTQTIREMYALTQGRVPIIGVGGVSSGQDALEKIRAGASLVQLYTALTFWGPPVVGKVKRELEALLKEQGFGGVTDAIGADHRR
row,Structure (SMILES),IC50
1,"COc1cc(-n2cc(C(C)C)c3cc(-c4cn(C)c(C(C)(C)O)n4)c(F)cc3c2=O)c(C)cn1 [WO2022070068, Example 25]",1.2 nM
2,"Cc1n[nH]c(Cl)c1-n1cc(C(C)C)c2cc(-c3nc(C(C)(C)O)n(C)n3)c(F)cc2c1=O [WO2022070068, Example 17]",0.71 nM
3,"CCn1nc(-c2cc3c(C(C)C)cn(-c4ccccc4C)c(=O)c3cc2F)nc1C(C)O (stereo not given) [WO2022070068, Example 28]",19 nM
4,"Cc1n[nH]c(Cl)c1-n1cc(C(C)C)c2cc(-c3cn(C)c(C(C)(C)O)n3)c(F)cc2c1=O [WO2022070068, Example 16]",0.51 nM
5,"Cc1ccccc1-n1cc(C(C)C)c2cc(-c3nc(C(C)O)n(C)n3)c(F)cc2c1=O (racemic) [WO2022070068, Example 5]",1.1 nM
6,"Cc1ccccc1-n1cc(C(C)C)c2cc(-c3nc([C@H](C)O)n(C)n3)c(F)cc2c1=O [WO2022070068, Example 13]",0.48 nM and 1.1 nM
7,"Cc1ccccc1-n1cc(C(C)C)c2cc(-c3cn(C)c([C@@H](C)O)n3)c(F)cc2c1=O [WO2022070068, Example 11]",0.51 nM
8,"CC(=O)c1nc(-c2cc3c(C(C)C)cn(-c4ccccc4C)c(=O)c3cc2F)nn1C [WO2022070068, Example 6]",1.7 nM
9,"Cc1ccccc1-n1cc(C(C)C)c2cc(-c3cn(C)c([C@H](C)O)n3)c(F)cc2c1=O [WO2022070068, Example 10]",0.73 nM
10,"Cc1ccnc(Cl)c1-n1cc(C(C)C)c2cc(-c3nc(C(C)(C)O)n(C)n3)c(F)cc2c1=O [WO2022070068, Example 19]",2.5 nM
11,"Cc1ccccc1-n1cc(C(C)C)c2cc(-c3nc([C@@H](C)O)n(C)n3)c(F)cc2c1=O [WO2022070068, Example 12]",1.6 nM and 2 nM
12,"Cc1ccccc1-n1cc(C(C)C)c2cc(-c3cn(C)c(CO)n3)c(F)cc2c1=O [WO2022070068, Example 8]",1.2 nM
13,"Cc1ccc(Cl)c(-n2cc(C(C)C)c3cc(-c4cn(C)c(C(C)(C)O)n4)c(F)cc3c2=O)n1 [WO2022070068, Example 27]",1.4 nM
14,"Cc1ccnc(Cl)c1-n1cc(C(C)C)c2cc(-c3cn(C)c(C(C)(C)O)n3)c(F)cc2c1=O [WO2022070068, Example 18]",2 nM
15,"Cc1ccccc1-n1cc(C(C)C)c2cc(-c3ccc(C)c(N)n3)c(F)cc2c1=O [WO2022070068, Example 2]",0.18 nM
16,"Cc1cnc(-c2cc3c(C(C)C)cn(-c4ccccc4C)c(=O)c3cc2F)cc1N [WO2022070068, Example 3]",3.6 nM
17,"CCn1nc(-c2cc3c(C(C)C)cn(-c4ccccc4C)c(=O)c3cc2F)nc1C(C)=O [WO2022070068, Example 24]",6.2 nM
18,"Cc1ccccc1-n1nc(C(C)C)c2cc(-c3cn(C)c([C@@H](C)O)n3)c(F)cc2c1=O [WO2022070068, Example 15]",2.6 nM
19,"Cc1ccccc1-n1cc(C(C)C)c2cc(-c3nc(CO)n(C)n3)c(F)cc2c1=O [WO2022070068, Example 9]",2.6 nM
20,"COc1cc(-n2cc(C(C)C)c3cc(-c4nc(C(C)(C)O)n(C)n4)c(F)cc3c2=O)c(C)cn1 [WO2022070068, Example 26]",1.2 nM
21,"Cc1ccccc1-n1nc(C(C)C)c2cc(-c3cn(C)c(C(C)(C)O)n3)c(F)cc2c1=O [WO2022070068, Example 14]",0.45 nM
22,"Cc1ccccc1-n1cc(C(C)C)c2cc(-c3cn(C)c(C(C)(C)O)n3)c(F)cc2c1=O [WO2022070068, Example 23]",0.38 nM and 0.54 nM
23,"CCn1nc(-c2cc3c(C(C)C)cn(-c4ccccc4C)c(=O)c3cc2F)nc1C(C)(C)O [WO2022070068, Example 20]",27 nM
24,"Cc1ccccc1-n1cc(C(C)C)c2cc(-c3nc(C(C)(C)O)n(C)n3)c(F)cc2c1=O [WO2022070068, Example 29]",0.57 nM and 0.64 nM
25,"Cc1ccccc1-n1cc(C(C)C)c2cc(-c3cnc(C4CC4)cn3)c(F)cc2c1=O [WO2022070068, Example 1]",2.6 nM
